Like-named read-outs stand apart in the source and are kept apart here.
How the values were obtained:
[1] = tested on: NCI-H1299 (H1299) carcinoma; settings: i.v. split dose qd x 1 at MTD (Taxol 36 mg/kg, 1393 72.1 mg/kg), 6 mice/group, Day 60
Procedure: Two antitumor compounds were formulated for an i.v. dosing regime prepared in the following vehicle: 10% ethanol, 10% Cremophor and 80% isotonic saline. […] Other compounds were formulated similarly.
The MTDs for the antitumor compounds were calculated from earlier single dose data for mice receiving i.v. administration of these compounds. […] Vehicle control animals were dosed twice intravenously with half the total volume being given separated by one hour. The study was terminated at Day 60.
The results are summarized in Table 1 and include mean days of survival (MDS), number of toxic deaths, number of survivors, number of complete or partial responses, and number with stable disease. The mean days of survival is the number of days after which a neoplasm reached a size of 1.5 g and the animal was euthanized. A complete response is obtained if the tumor is not palpable at the end of the study. A partial response is obtained if the tumor shrinks to a size smaller than its size on Day 1 of the study.
A tumor scoring system was designed to provide a more quantitative ranking of efficacy (therapeutic potential) among the antitumor agents evaluated against the different human solid tumor xenografts. Each mouse in a study was given a score of from 1 to 10 at the end of the study. The scores can be summarized as follows:
The individual score for each mouse was averaged into a mean score for each treatment group. […]
The treatment protocol for the H1299 test was identical to the SK-MES test protocol. […]

[2] = tested on: SKMES human lung cancer xenograft; settings: for Complete Responses / Partial Responses / Stable Disease / Toxic Deaths / MDS (n) / % Total Response: 6 mice/group, study end Day 62; for MDS (n): days until tumor reached 2.0 g; for MDS: 2.0 g cut-off
Procedure: Female Nu/Nu mice (6-8 weeks of age; implanted with 1 mm^3 SKMES lung carcinoma fragments in the flank) were sorted into treatment groups of six mice each. […] Treatment was administered as a single bolus on Day 1, and the study was terminated on Day 62.
(§1) The mean days of survival is the number of days after which a SKMES neoplasm reached a size of 2.0 g and the animal was euthanized. A complete response is obtained if the tumor is not palpable at the end of the study. A partial response is obtained if the tumor shrinks to a size smaller than its size on Day 1 of the study.

[3] = tested on: HCT116 human colon carcinoma xenograft; settings: 10 mice/group, study end Day 60
From the text: Six groups consisting of ten mice in each group were made up of female Nu/Nu mice (8-9 weeks of age; implanted with 1 mm^3 HCT116 human […] carcinoma fragments in the flank). Another six groups consisting of ten mice in each group were made up of male Nu/Nu mice (6-7 weeks of age; implanted with 1 mm^3 HCT116 human […] carcinoma fragments in the flank). […] The study was terminated on Day 60.
The results are summarized in Table 19 for the female mice and Table 20 for the male mice. Included are mean days of survival (MDS), number of toxic deaths, number of survivors, number of complete or partial responses, and number with stable disease. The mean days of survival is the number of days after which an […] neoplasm reached a size of 1.5 g and the animal was euthanized. A complete response is obtained if the tumor is not palpable at the end of the study. A partial response is obtained if the tumor shrinks to a size smaller than its size on Day 1 of the study. […]

[4] = tested on: MX-1 Human Breast Carcinoma Xenograft; settings: for Complete Responses / Partial Responses / Stable Disease / Toxic Deaths / Survivors / MDS (n): 6 mice/group, study end Day 60; for MDS (n): days until tumor reached 1.5 g
Procedure: The antitumor compounds were prepared in the following vehicle: 5% ethanol, 5% Cremophor and 90% isotonic saline.
Female Nu/Nu mice (12-13 weeks of age; implanted with 1 mm^3 MX-1 human breast carcinoma fragments in the flank) were sorted into treatment groups of six mice each (MX-1 tumor size ranges and group mean MX-1 tumor size ranges were 56-138 mg and 68-74 mg, respectively). […] All treatments were administered as a single oral bolus on Day 1, and the study was terminated on Day 60.
as §1, with “an MX-1” for “a SKMES”, “1.5” for “2.0”

[5] = 5.2 mg/kg single IV bolus Day 1
[6] = 5.2 mg/kg single oral bolus Day 1
[7] = 10.4 mg/kg single IV bolus Day 1
[8] = 10.4 mg/kg single oral bolus Day 1
[9] = 20.8 mg/kg single IV bolus Day 1
[10] = 20.8 mg/kg single oral bolus Day 1
[11] = 42 mg/kg single oral bolus Day 1
[12] = 73 mg/kg single oral bolus Day 1
[13] = 104 mg/kg single IV bolus Day 1
[14] = 104 mg/kg single oral bolus Day 1
[15] = female mice, 104 mg/kg i.v. in 5% ethanol and 95% Liposyn II (Group 4)
[16] = female mice, 104 mg/kg i.v. in 5% ethanol and 95% Liposyn III (Group 5)
[17] = female mice, 104 mg/kg oral in 5% ethanol, 5% Cremophor and 90% isotonic saline (Group 6)
[18] = male mice, 73 mg/kg i.v. in 5% ethanol and 95% Liposyn II (Group 4)
[19] = male mice, 73 mg/kg i.v. in 5% ethanol and 95% Liposyn III (Group 5)
[20] = male mice, 73 mg/kg oral in 5% ethanol, 5% Cremophor and 90% isotonic saline (Group 6)
[21] = 73.4 mg/kg single oral bolus Day 1
[22] = 105 mg/kg single oral bolus Day 1
[23] = 70 mg/kg single oral bolus Day 1
[24] = 100 mg/kg single oral bolus Day 1

CCC(=O)O[C@H]1C[C@H]2OC[C@@]2(OC(C)=O)[C@H]2[C@H](OC(=O)c3ccccc3)[C@]3(O)C[C@H](OC(=O)[C@H](O)[C@@H](NC(=O)OC(C)(C)C)c4ccco4)C(C)=C([C@@H](O)C(=O)[C@]12C)C3(C)C [Compound 1393, 3'-Desphenyl-3'-(2-furyl)-7-propionyl taxotere]
14.5 ± 1.1 (6) days: MDS (n) [2, 11]
9.6 ±0.6 (6) days: MDS (n) [2, 10]
6: Complete Responses [3, 19] | Complete Responses [3, 20]
10.5 ± 0.9 (6) days: MDS (n) [2, 5]
83.3%: % Total Response [2, 14]
3: Complete Responses ([2]; 42 mg/kg single IV bolus Day 1) | Complete Responses ([2]; 73 mg/kg single IV bolus Day 1) | Partial Responses ([2]; 73 mg/kg single IV bolus Day 1) | Partial Responses [3, 15] | Partial Responses [3, 16] | Partial Responses [3, 17] | Partial Responses [3, 20]
9.1 ± 0.7 (6) days: MDS (n) [2, 8]
23.2 days: MDS ([2]; SKMES, 1393 single IV bolus 20.8 mg/kg (Group 6))
2^a: Toxic Deaths ([3]; male mice, 73 mg/kg i.v. in 5% ethanol and 95% Liposyn III (Group 5), footnote: one death due to an unknown reason)
36.3 ±1.5 (3) days: MDS (n) [2, 12]
1: Partial Responses ([2]; 42 mg/kg single IV bolus Day 1) | Toxic Deaths [2, 12] | Partial Responses [2, 13] | Partial Responses [2, 14] | Partial Responses [3, 18] | Stable Disease [3, 20] | Stable Disease [4, 21] | Toxic Deaths [4, 21]
0: Complete Responses [2, 5] | Partial Responses [2, 5] | Stable Disease [2, 5] | Toxic Deaths [2, 5] | Complete Responses [2, 6] | Partial Responses [2, 6] | Stable Disease [2, 6] | Toxic Deaths [2, 6] | Complete Responses [2, 7] | Partial Responses [2, 7] | Stable Disease [2, 7] | Toxic Deaths [2, 7] | Complete Responses [2, 8] | Partial Responses [2, 8] | Stable Disease [2, 8] | Toxic Deaths [2, 8] | Complete Responses [2, 9] | Partial Responses [2, 9] | Stable Disease [2, 9] | Toxic Deaths [2, 9] | Complete Responses [2, 10] | Partial Responses [2, 10] | Stable Disease [2, 10] | Toxic Deaths [2, 10] | Stable Disease ([2]; 42 mg/kg single IV bolus Day 1) | Toxic Deaths ([2]; 42 mg/kg single IV bolus Day 1) | Complete Responses [2, 11] | Partial Responses [2, 11] | Stable Disease [2, 11] | Toxic Deaths [2, 11] | Stable Disease ([2]; 73 mg/kg single IV bolus Day 1) | Toxic Deaths ([2]; 73 mg/kg single IV bolus Day 1) | Partial Responses [2, 12] | Stable Disease [2, 12] | Stable Disease [2, 13] | Toxic Deaths [2, 13] | Stable Disease [2, 14] | Toxic Deaths [2, 14] | Toxic Deaths [3, 15] | Toxic Deaths [3, 16] | Toxic Deaths [3, 17] | Toxic Deaths [3, 18] | Partial Responses [3, 19] | Toxic Deaths [3, 20] | Partial Responses [4, 21] | Partial Responses [4, 22] | Stable Disease [4, 22] | Toxic Deaths [4, 22]
66.7%: % Total Response ([2]; 42 mg/kg single IV bolus Day 1)
2: Toxic Deaths [1] | Complete Responses [2, 12] | Stable Disease [3, 15] | Stable Disease [3, 16] | Stable Disease [3, 17] | Stable Disease [3, 18] | Stable Disease [3, 19]
23.2 ± 1.8 (6) days: MDS (n) [2, 9]
5: Complete Responses [2, 13] | Complete Responses [3, 16] | Complete Responses [4, 22]
100%: % Total Response ([2]; 73 mg/kg single IV bolus Day 1) | % Total Response [2, 13]
16.3 ± 1.3 (6) days: MDS (n) [2, 7]
16.3 days: MDS ([2]; SKMES, 1393 single IV bolus 10.4 mg/kg (Group 7))
0%: % Total Response [2, 6] | % Total Response [2, 8] | % Total Response [2, 9] | % Total Response [2, 10] | % Total Response [2, 11]
4: Complete Responses [2, 14] | Complete Responses [3, 17] | Complete Responses [4, 21]
not active: activity ([2]; SKMES, 1393 orally, lower doses (20.8, 10.4, 5.2 mg/kg))
9.2 ± 0.8 (6) days: MDS (n) [2, 6]
40%: % Total Response [2, 12]
7: Complete Responses [3, 18]

CC(=O)O[C@@]12CO[C@@H]1C[C@H](O)[C@@]1(C)C(=O)[C@H](O)C3=C(C)[C@@H](OC(=O)[C@H](O)[C@@H](NC(=O)OC(C)(C)C)c4ccccc4)C[C@@](O)([C@@H](OC(=O)c4ccccc4)[C@H]21)C3(C)C [docetaxel, reference compound]
27.9 ± 4.3 (6) days: MDS (n) [4, 23]
1: Partial Responses [4, 24] | Survivors [4, 24]
27.1 ± 3.5 (5) days: MDS (n) [4, 24]
0: Complete Responses [4, 23] | Partial Responses [4, 23] | Stable Disease [4, 23] | Survivors [4, 23] | Toxic Deaths [4, 23] | Complete Responses [4, 24] | Stable Disease [4, 24] | Toxic Deaths [4, 24]
One: Partial Response ([4]; MX-1, single oral bolus, Taxol 40 and 28 mg/kg groups together, Taxotere 100 and 70 mg/kg groups together, Day 60)
